Data from ChEMBL document CHEMBL1201862, “PubChem BioAssay data set” (2004).
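Interpolation was linear, between the two tested concentrations surrounding the appropriate level; five concentrations were tested over 48 hours in 96-well plates. The concentration for 50% growth inhibition is given as GI50.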 Active and inactive are the calls of the source. Cut-off read from the data, not from the text of the source: active = GI50 up to about 1.1 µM and inactive = higher.

Tests used:
Assay in all cases: NCI anticancer screen, dose series, 48 h
HT-29 = test system: HT-29
PC-3 = test system: PC-3
Malme-3M = test system: Malme-3M
COLO 205 = test system: COLO 205
KM12 = test system: KM12
HOP-62 = test system: HOP-62
T47D = test system: T47D
K562 = test system: K562
SK-MEL-5 = test system: SK-MEL-5
NCI-H522 = test system: NCI-H522
U-251 = test system: U-251
NCI-H460 = test system: NCI-H460
OVCAR-5 = test system: OVCAR-5
SN12C = test system: SN12C
Hs-578T = test system: Hs-578T
RXF 393 = test system: RXF 393
CCRF-CEM = test system: CCRF-CEM
IGROV-1 = test system: IGROV-1
EKVX = test system: EKVX
MDA-MB-435 = test system: MDA-MB-435
TK-10 = test system: TK-10
UO-31 = test system: UO-31
SF-295 = test system: SF-295
MOLT-4 = test system: MOLT-4
A549 = test system: A549
MDA-MB-231 = test system: MDA-MB-231
SNB-75 = test system: SNB-75
HCT-116 = test system: HCT-116
DU-145 = test system: DU-145
SNB-19 = test system: SNB-19
UACC-257 = test system: UACC-257
786-0 = test system: 786-0
HCT-15 = test system: HCT-15
OVCAR-4 = test system: OVCAR-4
OVCAR-8 = test system: OVCAR-8
SK-OV-3 = test system: SK-OV-3
SW-620 = test system: SW-620
SK-MEL-28 = test system: SK-MEL-28
SF-539 = test system: SF-539
CAKI-1 = test system: CAKI-1
MDA-N = test system: MDA-N
UACC-62 = test system: UACC-62
NCI/ADR-RES = test system: NCI/ADR-RES
NCI-H226 = test system: NCI-H226
M14 = test system: M14
RPMI-8226 = test system: RPMI-8226
SR = test system: SR
SF-268 = test system: SF-268
ACHN = test system: ACHN
A498 = test system: A498
NCI-H23 = test system: NCI-H23
MCF7 = test system: MCF7
HCC 2998 = test system: HCC 2998
HL-60 = test system: HL-60
LOX IMVI = test system: LOX IMVI
OVCAR-3 = test system: OVCAR-3
SK-MEL-2 = test system: SK-MEL-2
BT-549 = test system: BT-549
HOP-92 = test system: HOP-92

In the case of `COc1ccc(C2=CC(c3ccc4c(c3)OCO4)c3c(c4ccccc4oc3=O)O2)cc1OC` (configuration not stated), the GI50 (HT-29) is reported as 0.536 µM (active), the GI50 (PC-3) is reported as 2.42 µM (inactive) and the GI50 (Malme-3M) is reported as > 81.8 µM (inactive). For the same compound, the GI50 (COLO 205) was 1.51 µM (inactive), the GI50 (KM12) was 1.76 µM (inactive) and the GI50 (HOP-62) was 1.44 µM (inactive). The GI50 (T47D) was 0.685 µM (active), the GI50 (K562) was 0.415 µM (active) and the GI50 (SK-MEL-5) was 0.766 µM (active). The GI50 (NCI-H522) was 0.486 µM (active), the GI50 (U-251) was 1.98 µM (inactive) and the GI50 (NCI-H460) was 1.09 µM (active). For the same compound, the GI50 (OVCAR-5) was 4.85 µM (inactive), the GI50 (SN12C) was 5.56 µM (inactive) and the GI50 (Hs-578T) was 1.65 µM (inactive). For the same compound, the GI50 (RXF 393) was 0.764 µM (active), the GI50 (CCRF-CEM) was 2.49 µM (inactive) and the GI50 (IGROV-1) was 0.743 µM (active). The GI50 (EKVX) was 4.16 µM (inactive), the GI50 (MDA-MB-435) was 0.366 µM (active) and the GI50 (TK-10) was 2.75 µM (inactive). For the same compound, the GI50 (UO-31) was 2.55 µM (inactive), the GI50 (SF-295) was 0.374 µM (active) and the GI50 (MOLT-4) was 3.42 µM (inactive). For the same compound, the GI50 (A549) was 2.78 µM (inactive), the GI50 (MDA-MB-231) was 4.02 µM (inactive) and the GI50 (SNB-75) was 0.51 µM (active). The GI50 (HCT-116) was 0.824 µM (active), the GI50 (DU-145) was 2.25 µM (inactive) and the GI50 (SNB-19) was 2.53 µM (inactive). The GI50 (UACC-257) was > 100 µM (inactive), the GI50 (786-0) was 1.13 µM (inactive) and the GI50 (HCT-15) was 0.546 µM. For the same compound, the GI50 (OVCAR-4) was 98.4 µM (inactive), the GI50 (OVCAR-8) was 3.53 µM (inactive) and the GI50 (SK-OV-3) was 0.859 µM (active). The GI50 (SW-620) was 0.933 µM (active), the GI50 (SK-MEL-28) was > 55.2 µM (inactive) and the GI50 (SF-539) was 0.69 µM (active). The GI50 (CAKI-1) was 1.1 µM (active), the GI50 (MDA-N) was 0.324 µM (active) and the GI50 (UACC-62) was 0.424 µM (active). For the same compound, the GI50 (NCI/ADR-RES) was 1.41 µM (inactive), the GI50 (NCI-H226) was 0.546 µM (active) and the GI50 (M14) was 3.54 µM (inactive). The GI50 (RPMI-8226) was 2.64 µM (inactive), the GI50 (SR) was 0.486 µM (active) and the GI50 (SF-268) was 5.07 µM (inactive). For the same compound, the GI50 (ACHN) was 1.5 µM (inactive), the GI50 (A498) was 0.91 µM (active) and the GI50 (NCI-H23) was 2.51 µM (inactive). The GI50 (MCF7) was 0.454 µM (active), the GI50 (HCC 2998) was 1.46 µM (inactive) and the GI50 (HL-60) was 0.351 µM (active). For the same compound, the GI50 (LOX IMVI) was 1.26 µM (inactive).
With `O=C1C=CC=C/C1=C1\N=C(c2ccccc2OCC(=O)c2ccccc2)SS1` the GI50 (HT-29) was > 100 µM (inactive), the GI50 (Malme-3M) was > 100 µM (inactive) and the GI50 (KM12) was > 100 µM (inactive). The GI50 (HOP-62) was 39.4 µM (inactive), the GI50 (K562) was > 100 µM (inactive) and the GI50 (U-251) was 44.8 µM (inactive). For the same compound, the GI50 (OVCAR-3) was > 100 µM (inactive), the GI50 (NCI-H460) was > 100 µM (inactive) and the GI50 (OVCAR-5) was > 100 µM (inactive). For the same compound, the GI50 (SK-MEL-2) was > 100 µM (inactive), the GI50 (BT-549) was 46.1 µM (inactive) and the GI50 (SN12C) was > 100 µM (inactive). The GI50 (Hs-578T) was 26.9 µM (inactive), the GI50 (RXF 393) was > 100 µM (inactive) and the GI50 (CCRF-CEM) was > 100 µM (inactive). For the same compound, the GI50 (IGROV-1) was > 100 µM (inactive), the GI50 (EKVX) was > 100 µM (inactive) and the GI50 (MDA-MB-435) was > 100 µM (inactive). For the same compound, the GI50 (HOP-92) was > 100 µM (inactive), the GI50 (TK-10) was > 100 µM (inactive) and the GI50 (UO-31) was > 100 µM (inactive). The GI50 (SF-295) was 74.5 µM (inactive), the GI50 (MOLT-4) was 22.6 µM (inactive) and the GI50 (A549) was > 100 µM (inactive). For the same compound, the GI50 (MDA-MB-231) was > 100 µM (inactive), the GI50 (SNB-75) was 19.6 µM (inactive) and the GI50 (HCT-116) was > 100 µM (inactive). For the same compound, the GI50 (SNB-19) was > 100 µM (inactive), the GI50 (UACC-257) was > 100 µM (inactive) and the GI50 (786-0) was > 100 µM (inactive). For the same compound, the GI50 (HCT-15) was over 100 µM, the GI50 (OVCAR-4) was > 100 µM (inactive) and the GI50 (OVCAR-8) was 73.5 µM (inactive). The GI50 (SK-OV-3) was > 100 µM (inactive), the GI50 (SW-620) was > 100 µM (inactive) and the GI50 (SK-MEL-28) was > 100 µM (inactive). For the same compound, the GI50 (SF-539) was 86.7 µM (inactive), the GI50 (CAKI-1) was > 100 µM (inactive) and the GI50 (MDA-N) was > 100 µM (inactive). The GI50 (UACC-62) was > 100 µM (inactive), the GI50 (NCI/ADR-RES) was > 100 µM (inactive) and the GI50 (NCI-H226) was > 100 µM (inactive). For the same compound, the GI50 (M14) was > 100 µM (inactive), the GI50 (RPMI-8226) was > 100 µM (inactive) and the GI50 (SF-268) was 58.1 µM (inactive). For the same compound, the GI50 (ACHN) was > 100 µM (inactive), the GI50 (A498) was > 100 µM (inactive) and the GI50 (NCI-H23) was > 100 µM (inactive). For the same compound, the GI50 (MCF7) was > 100 µM (inactive), the GI50 (HCC 2998) was > 100 µM (inactive) and the GI50 (HL-60) was > 100 µM (inactive). The GI50 (LOX IMVI) was > 100 µM (inactive).
`COc1cccc2c(=O)c3c(O)c4cc(N(C)C)ccc4c(OC(C)=O)c3oc12` was tested, and the GI50 (HT-29) was 14.1 µM (inactive), the GI50 (PC-3) was 17.6 µM (inactive) and the GI50 (Malme-3M) was 2.56 µM (inactive). For the same compound, the GI50 (COLO 205) was 4.1 µM (inactive), the GI50 (KM12) was 13 µM (inactive) and the GI50 (HOP-62) was 15 µM (inactive). The GI50 (K562) was 15.6 µM (inactive), the GI50 (SK-MEL-5) was 12.6 µM (inactive) and the GI50 (U-251) was 14 µM (inactive). For the same compound, the GI50 (OVCAR-3) was 4 µM (inactive), the GI50 (NCI-H460) was 18.2 µM (inactive) and the GI50 (OVCAR-5) was 38.9 µM (inactive). The GI50 (SK-MEL-2) was 16.3 µM (inactive), the GI50 (BT-549) was 10.2 µM (inactive) and the GI50 (SN12C) was 12.9 µM (inactive). The GI50 (Hs-578T) was 14.3 µM (inactive), the GI50 (RXF 393) was 4.72 µM (inactive) and the GI50 (CCRF-CEM) was 5.33 µM (inactive). For the same compound, the GI50 (EKVX) was 12.5 µM (inactive), the GI50 (MDA-MB-435) was 12.6 µM (inactive) and the GI50 (HOP-92) was 17.4 µM (inactive). For the same compound, the GI50 (TK-10) was 15.3 µM (inactive), the GI50 (UO-31) was 17.7 µM (inactive) and the GI50 (SF-295) was 25.1 µM (inactive). The GI50 (MOLT-4) was 3.1 µM (inactive), the GI50 (A549) was 26.1 µM (inactive) and the GI50 (MDA-MB-231) was 11.4 µM (inactive). The GI50 (SNB-75) was 15.5 µM (inactive), the GI50 (HCT-116) was 13.9 µM (inactive) and the GI50 (DU-145) was 17.8 µM (inactive). For the same compound, the GI50 (SNB-19) was 33.2 µM (inactive), the GI50 (UACC-257) was 12.9 µM (inactive) and the GI50 (786-0) was 11.7 µM (inactive). For the same compound, the GI50 (HCT-15) was 12.7 µM, the GI50 (OVCAR-4) was 13.5 µM (inactive) and the GI50 (OVCAR-8) was 15.7 µM (inactive). For the same compound, the GI50 (SK-OV-3) was 32.4 µM (inactive), the GI50 (SW-620) was 7.41 µM (inactive) and the GI50 (SK-MEL-28) was 10.5 µM (inactive). For the same compound, the GI50 (SF-539) was 17.2 µM (inactive), the GI50 (CAKI-1) was 5.24 µM (inactive) and the GI50 (MDA-N) was 13.7 µM (inactive). The GI50 (UACC-62) was 12.9 µM (inactive), the GI50 (NCI/ADR-RES) was 21.7 µM (inactive) and the GI50 (NCI-H226) was 23.2 µM (inactive). For the same compound, the GI50 (M14) was 9.98 µM (inactive), the GI50 (RPMI-8226) was 13.2 µM (inactive) and the GI50 (SF-268) was 17 µM (inactive). The GI50 (ACHN) was 15.2 µM (inactive), the GI50 (A498) was 21 µM (inactive) and the GI50 (NCI-H23) was 17.2 µM (inactive). For the same compound, the GI50 (MCF7) was 14.5 µM (inactive), the GI50 (HCC 2998) was 15 µM (inactive) and the GI50 (HL-60) was 3.96 µM (inactive). For the same compound, the GI50 (LOX IMVI) was 12 µM (inactive).
